# Data as given in US8124788B2, “Spirocyclic cyclohexane compounds with analgesic activity” (Gruenenthal GmbH, priority 2006, dated 2012).
# pKi: −log10 of the molar value.
# Molecular target: T1, human μ opiate receptor (Homo sapiens, UniProt P35372)
# T1 construct: purchased PerkinElmer Life Sciences, Zaventem, Belgium RB-HOM; host or cells: CHO-K1 cells (recombinant expression)
# Assay: Affinity for the human μ opiate receptor ([3H]-naloxone displacement, CHO-K1 membrane preparation, SPA)
# Assay type: binding
# Conditions: 1 μM test substance; displacement of [3H]-naloxone
# Method: The receptor affinity for the human μ opiate receptor is determined in a homogeneous set-up in microtitre plates. For this purpose, dilution series of the substances to be tested are incubated with a receptor membrane preparation (15-40 μg of protein/250 μl of incubation batch) of CHO-K1 cells which express the human μ opiate receptor (RB-HOM receptor membrane preparation from PerkinElmer Life Sciences, Zaventem, Belgium) in the presence of 1 nmol/l of the radioactive ligand [^3H]-naloxone (NET719, PerkinElmer Life Sciences, Zaventem, Belgium) and 1 mg of WGA-SPA-Beads (wheat germ agglutinin SPA beads from Amersham/Pharmacia, Freiburg, Germany) in a total volume of 250 μl for 90 minutes at room temperature. 50 mmol/l of Tris-HCl supplemented with 0.06% of bovine serum albumin are used as the incubation buffer. 100 μmol/l of naloxone are additionally added for determination of the non-specific binding. After the end of the ninety-minute incubation time, the microtitre plates are centrifuged for 20 minutes at 1,000 g and the radioactivity is measured in a β-counter (Microbeta-Trilum, PerkinElmer Wallac, Freiburg, Germany). The percentage displacement of the radioactive ligand from its binding to the human μ opiate receptor is determined at a concentration of the test substances of 1 μmol/l and stated as the percentage inhibition of the specific binding. Starting from the percentage displacement by various concentrations of the test substances, IC50 inhibitory concentrations which cause a 50 percent displacement of the radioactive ligand are calculated. By conversion by means of the Cheng-Prusoff relationship, Ki values for the test substances are obtained.
# T1 sequence (P35372 whole entry): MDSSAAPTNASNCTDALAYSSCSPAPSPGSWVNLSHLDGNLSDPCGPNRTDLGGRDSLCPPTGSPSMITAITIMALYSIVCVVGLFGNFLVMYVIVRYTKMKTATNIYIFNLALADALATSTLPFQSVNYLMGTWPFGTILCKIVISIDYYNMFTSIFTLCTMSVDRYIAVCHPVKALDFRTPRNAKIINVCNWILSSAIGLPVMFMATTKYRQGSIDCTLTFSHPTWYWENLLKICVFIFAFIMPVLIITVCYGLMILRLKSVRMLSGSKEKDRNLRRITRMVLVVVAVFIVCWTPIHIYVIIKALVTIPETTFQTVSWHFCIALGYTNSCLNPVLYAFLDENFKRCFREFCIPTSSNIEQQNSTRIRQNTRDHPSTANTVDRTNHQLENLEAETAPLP
row,SMILES,"μ opioid receptor [1 μM], % inhibition [%]"
1,"Cc1ccc2[nH]c3c(c2c1)CC(C)OC31CCC(C(CCc2ccccc2)N(C)C)CC1 (stereo not shown) [Compound 43, 3,6-Dimethyl-1,1-[3-(dimethylamino-(phenylethyl)-methyl)-pentamethylene]-1,3,4,9-tetrahydropyrano[3,4-b]indole]",42
2,"CC1Cc2c([nH]c3ccc(F)cc23)C2(CCC(C(c3ccc(Cl)cc3)N(C)C)CC2)O1 (stereo not shown) [Compound 55, 6-Fluoro-3-methyl-1,1-[3-(dimethylamino-(4-chlorophenyl) -methyl)-penta-methylene]-1,3,4,9-tetrahydropyrano[3,4-b]indole]",58

# Same assay, conditions: 1 μM test substance; displacement of [3H]-naloxone; read-out: μ opioid receptor [1 μM], % inhibition
row,SMILES,inhibition at 1 µM [%]
1,"CN(C)C(c1cccc(F)c1)C1CCC2(CC1)OCCc1c2[nH]c2ccc(F)cc12 (stereo not shown) [Compound 36, 6-Fluoro-1,1-[3-(dimethylamino-(3-fluorophenyl)-methyl)-pentamethylene]-1,3,4,9-tetrahydropyrano[3,4-b]indole]",102

# Same assay, conditions: Cheng-Prusoff conversion from IC50; read-out: μ opioid receptor, Ki
row,SMILES,pKi
1,"CN(C)C(c1cccc(F)c1)C1CCC2(CC1)OCCc1c2[nH]c2ccc(F)cc12 (stereo not shown) [Compound 36, 6-Fluoro-1,1-[3-(dimethylamino-(3-fluorophenyl)-methyl)-pentamethylene]-1,3,4,9-tetrahydropyrano[3,4-b]indole]",7.34

# Same assay, conditions: compounds prepared via automated synthesis; single measurements at a test concentration of 1 μM
row,SMILES,"μ opioid receptor [1 μmol], % inhibition [%]"
1,"CN(C)C(c1ccccc1)C1CCC2(CC1)c1[nH]c3ccccc3c1CCN2C(=O)CC(C)(C)C (stereo not shown) [Compound 56, 1-{1,1-[3-(dimethylamino-phenylmethyl)-pentamethylene]-3,4-dihydro-1H-2,9-diazafluoren-2-yl}-3,3-dimethylbutan-1-one]",36
2,"COc1ccc(CC(=O)N2CCc3c([nH]c4ccccc34)C23CCC(C(c2ccccc2)N(C)C)CC3)cc1OC (stereo not shown) [Compound 57, 2-[(3,4-dimethoxyphenyl)acetyl]-{1,1-[3-(dimethylamino-phenylmethyl)-pentamethylene]-3,4-dihydro-1H-2,9-diazafluorene}]",55
3,"CC(=Cc1ccccc1)C(=O)N1CCc2c([nH]c3ccccc23)C12CCC(C(c1ccccc1)N(C)C)CC2 (stereo not shown) [Compound 58, 1-{1,1-[3-(dimethylamino-phenylmethyl)-pentamethylene]-3,4-dihydro-1H-2,9-diazafluoren-2-yl}-2-methyl-3-phenylprop-2-en-1-one]",50
4,"CN(C)C(c1ccccc1)C1CCC2(CC1)c1[nH]c3ccccc3c1CCN2C(=O)C1CCCCC1 (stereo not shown) [Compound 59, 2-(cyclohexylcarbonyl)-{1,1-[3-(dimethylamino-phenylmethyl)-pentamethylene]-3,4-dihydro-1H-2,9-diazafluorene}]",29
5,"CN(C)C(c1ccccc1)C1CCC2(CC1)c1[nH]c3ccccc3c1CCN2C(=O)COc1ccc(Cl)cc1 (stereo not shown) [Compound 60, 2-[(4-chlorophenoxy)acetyl]-{1,1-[3-(dimethylamino-phenylmethyl)-pentamethylene]-3,4-dihydro-1H-2,9-diazafluorene}]",26
6,"CN(C)C(c1ccccc1)C1CCC2(CC1)c1[nH]c3ccccc3c1CCN2C(=O)C=Cc1ccccc1Cl (stereo not shown) [Compound 61, 1-{1,1-[3-(dimethylamino-phenylmethyl)-pentamethylene]-3,4-dihydro-1H-2,9-diazafluoren-2-yl}-3-(2-chlorophenyl)prop-2-en-1-one]",6
7,"CN(C)C(c1ccc(F)cc1)C1CCC2(CC1)c1[nH]c3ccccc3c1CCN2C(=O)CC(C)(C)C (stereo not shown) [Compound 62, 1-{1,1-[3-(dimethylamino-(4-fluorophenyl)methyl) -pentamethylene]-3,4-dihydro-1H-2,9-diazafluoren-2-yl}-3,3-dimethylbutan-1-one]",12
8,"COc1ccc(CC(=O)N2CCc3c([nH]c4ccccc34)C23CCC(C(c2ccc(F)cc2)N(C)C)CC3)cc1OC (stereo not shown) [Compound 63, 2-[(3,4-dimethoxyphenyl)acetyl]-{1,1-[3-(dimethylamino-(4-fluorophenyl)methyl)-pentamethylene]-3,4-dihydro-1H-2,9-diazafluorene}]",29
9,"CC(=Cc1ccccc1)C(=O)N1CCc2c([nH]c3ccccc23)C12CCC(C(c1ccc(F)cc1)N(C)C)CC2 (stereo not shown) [Compound 64, 1-{1,1-[3-(dimethylamino-(4-fluorophenyl)methyl) -pentamethylene]-3,4-dihydro-1H-2,9-diazafluoren-2-yl}-2-methyl-3-phenylprop-2-en-1-one]",15
10,"CN(C)C(c1ccc(F)cc1)C1CCC2(CC1)c1[nH]c3ccccc3c1CCN2C(=O)COc1ccc(Cl)cc1 (stereo not shown) [Compound 65, 2-[(4-chlorophenoxy)acetyl]-{1,1-[3-(dimethylamino-(4-fluorophenyl)methyl)-pentamethylene]-3,4-dihydro-1H-2,9-diazafluorene}]",17
11,"CN(C)C(c1cccc(F)c1)C1CCC2(CC1)c1[nH]c3ccccc3c1CCN2C(=O)CC(C)(C)C (stereo not shown) [Compound 66, 1-{1,1-[3-(dimethylamino-(3-fluorophenyl)methyl) -pentamethylene]-3,4-dihydro-1H-2,9-diazafluoren-2-yl}-3,3-dimethylbutan-1-one]",26
12,"COc1ccc(CC(=O)N2CCc3c([nH]c4ccccc34)C23CCC(C(c2cccc(F)c2)N(C)C)CC3)cc1OC (stereo not shown) [Compound 67, 2-[(3,4-dimethoxyphenyl)acetyl]-{1,1-[3-(dimethylamino-(3-fluorophenyl)methyl)-pentamethylene]-3,4-dihydro-1H-2,9-diazafluorene}]",25
13,"CC(=Cc1ccccc1)C(=O)N1CCc2c([nH]c3ccccc23)C12CCC(C(c1cccc(F)c1)N(C)C)CC2 (stereo not shown) [Compound 68, 1-{1,1-[3-(dimethylamino-(3-fluorophenyl)methyl) -pentamethylene]-3,4-dihydro-1H-2,9-diazafluoren-2-yl}-2-methyl-3-phenylprop-2-en-1-one]",19
14,"CN(C)C(c1cccc(F)c1)C1CCC2(CC1)c1[nH]c3ccccc3c1CCN2C(=O)C1CCCCC1 (stereo not shown) [Compound 69, 2-(cyclohexylcarbonyl)-{1,1-[3-(dimethylamino-(3-fluorophenyl)methyl)-pentamethylene]-3,4-dihydro-1H-2,9-diazafluorene}]",26
15,"CN(C)C(c1cccc(F)c1)C1CCC2(CC1)c1[nH]c3ccccc3c1CCN2C(=O)COc1ccc(Cl)cc1 (stereo not shown) [Compound 70, 2-[(4-chlorophenoxy)acetyl]-{1,1-[3-(dimethylamino-(3-fluorophenyl)methyl)-pentamethylene]-3,4-dihydro-1H-2,9-diazafluorene}]",31
16,"CN(C)C(c1cccc(F)c1)C1CCC2(CC1)c1[nH]c3ccccc3c1CCN2C(=O)C=Cc1ccccc1Cl (stereo not shown) [Compound 72, 1-{1,1-[3-(dimethylamino-(3-fluorophenyl)methyl) -pentamethylene]-3,4-dihydro-1H-2,9-diazafluoren-2-yl}-3-(2-chlorophenyl)prop-2-en-1-one]",24
17,"CN(C)C(c1ccc(Cl)cc1)C1CCC2(CC1)c1[nH]c3ccccc3c1CCN2C(=O)CC(C)(C)C (stereo not shown) [Compound 73, 1-{1,1-[3-(dimethylamino-(4-chlorophenyl)methyl) -pentamethylene]-3,4-dihydro-1H-2,9-diazafluoren-2-yl}-3,3-dimethylbutan-1-one]",24
18,"COc1ccc(CC(=O)N2CCc3c([nH]c4ccccc34)C23CCC(C(c2ccc(Cl)cc2)N(C)C)CC3)cc1OC (stereo not shown) [Compound 74, 2-[(3,4-dimethoxyphenyl)acetyl]-{1,1-[3-(dimethylamino-(4-chlorophenyl)-methyl)-pentamethylene]-3,4-dihydro-1H-2,9-diazafluorene}]",37
19,"CC(=Cc1ccccc1)C(=O)N1CCc2c([nH]c3ccccc23)C12CCC(C(c1ccc(Cl)cc1)N(C)C)CC2 (stereo not shown) [Compound 75, 1-{1,1-[3-(dimethylamino-(4-chlorophenyl)methyl) -pentamethylene]-3,4-dihydro-1H-2,9-diazafluoren-2-yl}-2-methyl-3-phenylprop-2-en-1-one]",13
20,"CN(C)C(c1ccc(Cl)cc1)C1CCC2(CC1)c1[nH]c3ccccc3c1CCN2C(=O)C1CCCCC1 (stereo not shown) [Compound 76, 2-(cyclohexylcarbonyl)-{1,1-[3-(dimethylamino-(4-chlorophenyl)methyl)-pentamethylene]-3,4-dihydro-1H-2,9-diazafluorene}]",15
21,"CN(C)C(c1ccc(Cl)cc1)C1CCC2(CC1)c1[nH]c3ccccc3c1CCN2C(=O)COc1ccc(Cl)cc1 (stereo not shown) [Compound 77, 2-[(4-chlorophenoxy)acetyl]-{1,1-[3-(dimethylamino-(4-chlorophenyl)-methyl)-pentamethylene]-3,4-dihydro-1H-2,9-diazafluorene}]",17
